The subject of experiment [1] is total GSH. The experiment is described as follows: Example 2: oral L-ergothioneine on plasma glutathione in healthy humans. It is filed as in vivo, human. The settings on record: Example 2, 200 mg orally once daily, single subject.
Experiment [2] deals with total GSH. The experiment can be described thus: Example 3: oral L-ergothioneine 5, 15, 30 mg/day on plasma glutathione in healthy humans. It is filed as in vivo, human. The text has this: A Baseline will be established looking at Total and Percent Reduced Glutathione. These same values will be measured at the end of the four weeks. Subjects will be contacted once a week while in the study for an assessment of compliance with intervention.
Study Population: Male and female subjects 25-75 years of age Number of Subjects: 5, assigned as follows: 1 subject will receive the GSH administered orally once weekly for 4 weeks; 1 subject will receive S-acetyl-glutathione supplemented orally once daily for 4 weeks; 3 subjects will receive 5, 15, 30 mg L-ergothioneine supplemented orally once daily for 4 weeks, respectively.
• 1. Individuals must be between 25-70 years of age with no known medical conditions that, in the investigator's opinion, may interfere with study participation. • 2. Subjects must present with mild to moderate signs oxidative stress or inflammation. • 3. Willingness to cooperate and participate by following Study requirements. • 4. Individuals must sign informed consent, photo release consent and confidentiality agreement.
• 1. […] Individuals currently taking certain medications or any dietary supplements, which in the opinion of the investigator might interfere with the study. This would include but not be limited to routine high dosage use of anti-inflammatory drugs (aspirin, ibuprofen, corticosteroids) immunosuppressive drugs or antihistamine medications), and insulin, anti-hypertensive drugs, and especially antioxidants. • 3. Individuals with uncontrolled metabolic diseases such as diabetes (Type I and II), hypertension, hyperthyroidism or hypothyroidism, severe chronic asthma, immunological disorders such as HIV positive, AIDS and systemic lupus erythematosus or mastectomy for cancer involving removal of lymph nodes. • 4. Women known to be pregnant, nursing or planning to become pregnant. • 5. Individuals participating in other clinical studies evaluating antioxidants or anti-inflammatory interventions.

From patent US20250073210A1, “Use of Ergothioneine for Enhancing Glutathione Level” (priority 2022, published 2025) come the findings set out here.

Regarding `CC(=O)SC[C@H](NC(=O)CC[C@H](N)C(=O)O)C(=O)NCC(=O)O` [SAG, S-acetyl-glutathione], the “% change from baseline in total GSH” value in the experiment on total GSH [1] is reported as −25%; with total GSH [2] (Example 3, single subject), −37%. The “Total GSH at Day 30” value in the experiment on total GSH [1] (baseline 727 μM) worked out at 547 µM; with total GSH [2] (Example 3, 200 mg orally once daily, single subject, baseline 733 μM) it was 461 µM; in the experiment with total GSH [2] (Example 3, second sentence on a single subject with comparator intervention (see doubts)) it was 503 µM.
